Measured values taken from US20240398784A1, “C-LINKED ISOQUINOLINE AMIDES AS LRRK2 INHIBITORS, PHARMACEUTICAL COMPOSITIONS, AND USES THEREOF” (Merck Sharp & Dohme LLC, priority 2021, published 2024).

target: LRRK2 G2019S (Homo sapiens, UniProt Q5S007, G2019S); assay: LRRK2 G2019S Km ATP LanthaScreen assay; assay type: biochemical; settings: not given
Sequence (Q5S007 whole entry G2019S): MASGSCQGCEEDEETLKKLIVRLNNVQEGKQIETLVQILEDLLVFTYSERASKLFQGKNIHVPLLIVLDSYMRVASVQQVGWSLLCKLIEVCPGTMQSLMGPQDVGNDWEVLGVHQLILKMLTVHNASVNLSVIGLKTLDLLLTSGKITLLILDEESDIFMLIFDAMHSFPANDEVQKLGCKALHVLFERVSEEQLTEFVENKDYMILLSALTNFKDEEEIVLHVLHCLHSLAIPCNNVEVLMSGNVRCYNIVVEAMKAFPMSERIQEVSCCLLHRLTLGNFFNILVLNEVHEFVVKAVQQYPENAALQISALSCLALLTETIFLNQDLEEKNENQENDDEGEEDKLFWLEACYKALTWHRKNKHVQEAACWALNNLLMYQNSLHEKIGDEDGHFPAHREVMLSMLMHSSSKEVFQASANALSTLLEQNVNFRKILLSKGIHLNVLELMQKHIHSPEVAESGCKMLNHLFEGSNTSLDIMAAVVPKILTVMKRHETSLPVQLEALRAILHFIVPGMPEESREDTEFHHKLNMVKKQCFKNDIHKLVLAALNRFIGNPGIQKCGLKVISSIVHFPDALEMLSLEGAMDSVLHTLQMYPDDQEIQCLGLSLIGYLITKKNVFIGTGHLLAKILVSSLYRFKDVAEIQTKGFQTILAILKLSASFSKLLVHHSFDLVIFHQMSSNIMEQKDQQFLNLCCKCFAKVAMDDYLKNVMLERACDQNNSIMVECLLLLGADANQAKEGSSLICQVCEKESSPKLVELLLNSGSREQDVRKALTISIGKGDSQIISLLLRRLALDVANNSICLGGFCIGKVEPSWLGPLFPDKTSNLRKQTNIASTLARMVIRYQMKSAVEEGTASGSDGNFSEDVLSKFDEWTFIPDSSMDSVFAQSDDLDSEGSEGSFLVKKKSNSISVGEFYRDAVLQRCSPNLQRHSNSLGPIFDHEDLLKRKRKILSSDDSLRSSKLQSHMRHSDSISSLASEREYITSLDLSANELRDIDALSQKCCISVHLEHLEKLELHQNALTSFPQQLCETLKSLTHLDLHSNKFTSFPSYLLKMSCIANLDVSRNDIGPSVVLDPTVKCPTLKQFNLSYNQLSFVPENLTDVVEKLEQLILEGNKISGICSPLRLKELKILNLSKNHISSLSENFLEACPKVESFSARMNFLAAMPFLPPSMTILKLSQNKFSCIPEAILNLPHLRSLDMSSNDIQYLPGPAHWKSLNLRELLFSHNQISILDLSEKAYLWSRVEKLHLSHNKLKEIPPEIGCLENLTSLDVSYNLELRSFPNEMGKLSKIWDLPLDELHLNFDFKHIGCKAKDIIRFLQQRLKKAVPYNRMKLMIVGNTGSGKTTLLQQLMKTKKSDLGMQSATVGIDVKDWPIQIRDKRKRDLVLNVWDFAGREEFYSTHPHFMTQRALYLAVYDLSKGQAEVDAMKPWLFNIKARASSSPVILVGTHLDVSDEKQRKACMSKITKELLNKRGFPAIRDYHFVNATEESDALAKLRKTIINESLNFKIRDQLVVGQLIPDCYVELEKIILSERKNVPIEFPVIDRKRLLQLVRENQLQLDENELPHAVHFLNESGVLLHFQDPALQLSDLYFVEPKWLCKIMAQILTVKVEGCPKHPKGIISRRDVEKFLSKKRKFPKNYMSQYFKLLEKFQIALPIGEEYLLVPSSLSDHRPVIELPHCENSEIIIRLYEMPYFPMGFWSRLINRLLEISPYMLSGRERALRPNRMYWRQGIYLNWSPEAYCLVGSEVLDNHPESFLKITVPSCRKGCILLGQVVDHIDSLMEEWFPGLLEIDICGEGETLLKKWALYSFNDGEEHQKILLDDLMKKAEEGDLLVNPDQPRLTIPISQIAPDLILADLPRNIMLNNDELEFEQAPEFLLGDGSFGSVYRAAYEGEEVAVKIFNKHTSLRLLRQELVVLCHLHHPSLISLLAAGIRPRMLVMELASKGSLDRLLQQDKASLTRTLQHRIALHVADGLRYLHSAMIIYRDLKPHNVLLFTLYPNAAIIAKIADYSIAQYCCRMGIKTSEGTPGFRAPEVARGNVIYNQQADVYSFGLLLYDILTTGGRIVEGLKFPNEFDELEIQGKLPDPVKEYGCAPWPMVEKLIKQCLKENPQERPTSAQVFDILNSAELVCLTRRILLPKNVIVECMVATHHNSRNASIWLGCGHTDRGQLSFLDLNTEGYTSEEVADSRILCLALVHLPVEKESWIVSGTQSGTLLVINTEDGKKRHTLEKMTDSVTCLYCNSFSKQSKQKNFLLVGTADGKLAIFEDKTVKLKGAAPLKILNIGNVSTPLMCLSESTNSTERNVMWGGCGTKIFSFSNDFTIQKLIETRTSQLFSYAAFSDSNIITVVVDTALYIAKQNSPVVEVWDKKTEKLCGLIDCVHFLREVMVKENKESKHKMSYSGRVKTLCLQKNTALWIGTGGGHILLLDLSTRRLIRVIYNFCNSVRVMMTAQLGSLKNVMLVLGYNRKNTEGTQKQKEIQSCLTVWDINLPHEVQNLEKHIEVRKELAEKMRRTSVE

| SMILES | LRRK2 pIC50 |
| --- | --- |
| O=C(Nc1cc2cc(C3CCN(C4COC4)CC3)c(Cl)cc2cn1)C1CC12CC2 (stereo not drawn) [Ex-9.1] | 8.69 |

same assay, conditions: read-out: LRRK2 pIC50 (converted)

| IC50 | SMILES |
| --- | --- |
| 0.631 nM | CC1(N2CCC(c3cc4cc(NC(=O)Cc5cnn(C(F)F)c5)ncc4cc3Cl)CC2)COCC1O (stereo not drawn) [Ex-3.11] |
| 117 nM | O=C(Nc1cc2cc(C3CCN(C4COCC4O)CC3)c(Cl)cc2cn1)C1CC12CCOCC2 (single isomer, unassigned) [Ex-4.4, N-(7-chloro-6-(1-(4-hydroxytetrahydrofuran-3-yl)piperidin-4-yl)isoquinolin-3-yl)-6-oxaspiro[2.5]octane-1-carboxamide] |
| 8.91 nM | CC1CC1C(=O)Nc1cc2cc(C3CCN(C4COC4)CC3)c(Cl)cc2cn1 (single isomer, unassigned) [Ex-9.6, N-(7-chloro-6-(1-(oxetan-3-yl)piperidin-4-yl)isoquinolin-3-yl)-2-methylcyclopropane-1-carboxamide] |
| 0.363 nM | CC(C)(O)C1CC1C(=O)Nc1cc2cc(C3CCN(C4(C)COCC4F)CC3)c(Cl)cc2cn1 (single isomer, unassigned) [Ex-6.28, N-(7-chloro-6-(1-(4-fluoro-3-methyltetrahydrofuran-3-yl)piperidin-4-yl)isoquinolin-3-yl)-2-(2-hydroxypropan-2-yl)cyclopropane-1-carboxamide] |
| 39.8 nM | C[C@H]1CC(F)(F)CC[C@H]1C(=O)Nc1cc2cc(C3CCN(C4COC4)CC3)c(Cl)cc2cn1 [Ex-1.11, (1R,2S)-N-(7-chloro-6-(1-(oxetan-3-yl)piperidin-4-yl)isoquinolin-3-yl)-4,4-difluoro-2-methylcyclohexane-1-carboxamide] |
| 83.2 nM | CC1C(C(=O)Nc2cc3cc(C4CCN(C5(C)COCC5O)CC4)c(Cl)cc3cn2)C1c1ccccn1 (single isomer, unassigned) [Ex-4.51, N-(7-chloro-6-(1-(4-hydroxy-3-methyltetrahydrofuran-3-yl)piperidin-4-yl)isoquinolin-3-yl)-2-methyl-3-(pyridin-2-yl)cyclopropane-1-carboxamide] |
| 5.89 nM | CC(C)(O)C1CC1C(=O)Nc1cc2cc(C3CCN(C4(C)CCOC4)CC3)c(Cl)cc2cn1 (single isomer, unassigned) [Ex-6.13, N-(7-chloro-6-(1-(3-methyltetrahydrofuran-3-yl)piperidin-4-yl)isoquinolin-3-yl)-2-(2-hydroxypropan-2-yl)cyclopropane-1-carboxamide] |
| 0.0813 nM | C[C@@]1(N2CC[C@@H](c3cc4cc(NC(=O)[C@H]5CC56CC6)ncc4cc3Cl)[C@H](F)C2)COC[C@@H]1O [Ex-23.1, (S)-N-(7-chloro-6-((3S,4S)-3-fluoro-1-((3R,4R)-4-hydroxy-3-methyltetrahydrofuran-3-yl)piperidin-4-yl)isoquinolin-3-yl)spiro[2.2]pentane-1-carboxamide] |
| 2.45 nM | O=C(Nc1cc2cc(C3CCN(C4COC4)CC3)c(Cl)cc2cn1)[C@H]1C[C@H]1F [Ex-1.13, (1R,2R)-N-(7-chloro-6-(1-(oxetan-3-yl)piperidin-4-yl)isoquinolin-3-yl)-2-fluorocyclopropane-1-carboxamide] |
| 0.0813 nM | CC(C)(O)C1CC1C(=O)Nc1cc2cc(C3CCN(C4(C)COCC4O)CC3)c(Cl)cc2cn1 (single isomer, unassigned) [Ex-4.10, Trans-N-(7-chloro-6-(1-(4-hydroxy-3-methyltetrahydrofuran-3-yl)piperidin-4-yl)isoquinolin-3-yl)-2-(2-hydroxypropan-2-yl)cyclopropane-1-carboxamide] |
| 11.5 nM | O=C(Nc1cc2cc(C3CCN(C4COC4)CC3)c(Cl)cc2cn1)c1cocn1 [Ex-1.38, N-(7-chloro-6-(1-(oxetan-3-yl)piperidin-4-yl)isoquinolin-3-yl)oxazole-4-carboxamide] |
| 8.71 nM | Cn1cc(C2CC2C(=O)Nc2cc3cc(C4CCC(N5CC(F)C5)CC4)c(Cl)cc3cn2)cn1 (single isomer, unassigned) [Ex-5.8, N-(7-cchloro-6-(4-(3-fluoroazetidin-1-yl)cyclohexyl)isoquinolin-3-yl)-2-(1-methyl-1H-pyrazol-4-yl)cyclopropane-1-carboxamide] |
| 0.0813 nM | CC1(N2CCC(c3cc4cc(NC(=O)C5C6CCOCC65)ncc4cc3Cl)CC2)COCC1F (single isomer, unassigned) [Ex-6.41, N-(7-chloro-6-(1-(4-fluoro-3-methyltetrahydrofuran-3-yl)piperidin-4-yl)isoquinolin-3-yl)-3-oxabicyclo[4.1.0]heptane-7-carboxamide] |
| 0.562 nM | CC1(N2CCC(c3cc4cc(NC(=O)C5CC5c5cncnc5)ncc4cc3Cl)CC2)COCC1O (single isomer, unassigned) [Ex-4.36, N-(7-chloro-6-(1-(4-hydroxy-3-methyltetrahydrofuran-3-yl)piperidin-4-yl)isoquinolin-3-yl)-2-(pyrimidin-5-yl)cyclopropane-1-carboxamide] |
| 0.363 nM | CC1(N2CCC(c3cc4cc(NC(=O)C5C6CCCOC65)ncc4cc3Cl)CC2)COCC1O (single isomer, unassigned) [Ex-4.11, N-(7-chloro-6-(1-(4-hydroxy-3-methyltetrahydrofuran-3-yl)piperidin-4-yl)isoquinolin-3-yl)-2-oxabicyclo[4.1.0]heptane-7-carboxamide] |
| 2.34 nM | CC1(C)CCC(C(=O)Nc2cc3cc(C4CCC(N5CCC(F)C5)CC4)c(Cl)cc3cn2)CO1 (single isomer, unassigned) [Ex-5.19, N-(7-chloro-6-(4-(3-fluoropyrrolidin-1-yl)cyclohexyl)isoquinolin-3-yl)-6,6-dimethyltetrahydro-2H-pyran-3-carboxamide] |
| 0.0813 nM | CCC1C(C(=O)Nc2cc3cc(C4CCC(N5CC(F)C5)CC4)c(Cl)cc3cn2)C1c1cnn(C)c1 (single isomer, unassigned) [Ex-11.8, N-(7-chloro-6-(4-(3-fluoroazetidin-1-yl)cyclohexyl)isoquinolin-3-yl)-2-ethyl-3-(1-methyl-1H-pyrazol-4-yl)cyclopropane-1-carboxamide] |
| 2.34 nM | Cn1cc(C2CC2C(=O)Nc2cc3cc(C4CC(N5CC(F)C5)C4)c(Cl)cc3cn2)cn1 (single isomer, unassigned) [Ex-5.26, N-(7-chloro-6-(3-(3-fluoroazetidin-1-yl)cyclobutyl)isoquinolin-3-yl)-2-(1-methyl-1H-pyrazol-4-yl)cyclopropane-1-carboxamide] |
| 1.95 nM | O=C(Nc1cc2cc(C3CCN(C4COC4)CC3)c(Cl)cc2cn1)C1CC12CCOCC2 (single isomer, unassigned) [Ex-9.7, N-(7-chloro-6-(1-(oxetan-3-yl)piperidin-4-yl)isoquinolin-3-yl)-6-oxaspiro[2.5]octane-1-carboxamide] |

Continued, compound first:

| SMILES | IC50 |
| --- | --- |
| CC1(C)CC(C(=O)Nc2cc3cc(C4CCN(C5(C)CCOC5)CC4)c(Cl)cc3cn2)CCO1 (single isomer, unassigned) [Ex-6.46, N-(7-chloro-6-(1-(3-methyltetrahydrofuran-3-yl)piperidin-4-yl)isoquinolin-3-yl)-2,2-dimethyltetrahydro-2H-pyran-4-carboxamide] | 1.2 nM |
| N#CC1(c2cc3cc(NC(=O)C4CC4)ncc3cc2F)CC12CC2 (single isomer, unassigned) [Ex-18.9, (R or S)-N-(6-(1-cyanospiro[2.2]pentan-1-yl)-7-fluoroisoquinolin-3-yl)cyclopropanecarboxamide] | 35.5 nM |
| CC1(N2CCC(c3cc4cc(NC(=O)Cn5ccc(C(F)(F)F)n5)ncc4cc3Cl)CC2)COCC1O (stereo not drawn) [Ex-3.10] | 1 nM |
| COC1COCC1N1CCC(c2cc3cc(NC(=O)C4CC45CCOCC5)ncc3cc2Cl)CC1 (single isomer, unassigned) [Ex-6.52, N-(7-chloro-6-(1-(4-methoxytetrahydrofuran-3-yl)piperidin-4-yl)isoquinolin-3-yl)-6-oxaspiro[2.5]octane-1-carboxamide] | 0.2 nM |
| N#CC1(c2ccc3cnc(NC(=O)C4CC4c4cccnc4)cc3c2)CC12CC2 (stereo not drawn) [Ex-2.45] | 11.2 nM |
| N#CC1(c2ccc3cnc(NC(=O)C4CCN(C(=O)C(F)(F)F)CC4)cc3c2)CC12CC2 (single isomer, unassigned) [Ex-1.30, N-(6-((R or S)-1-cyanospiro[2.2]pentan-1-yl)isoquinolin-3-yl)-1-(2,2,2-trifluoroacetyl)piperidine-4-carboxamide] | 14.1 nM |
| N#CC1(c2cc3cc(NC(=O)C4CC4c4ccccn4)ncc3cc2F)CC12CC2 (single isomer, unassigned) [Ex-18.13, (1R,2R or 1S,2S)-N-(6-((R or S)-1-cyanospiro[2.2]pentan-1-yl)-7-fluoroisoquinolin-3-yl)-2-(pyridin-2-yl)cyclopropane-1-carboxamide] | 7.41 nM |
| CCC1C(C(=O)Nc2cc3cc(C4CCN(C5(C)COCC5O)CC4)c(Cl)cc3cn2)C1c1ccccn1 (single isomer, unassigned) [Ex-4.56, N-(7-chloro-6-(1-(4-hydroxy-3-methyltetrahydrofuran-3-yl)piperidin-4-yl)isoquinolin-3-yl)-2-ethyl-3-(pyridin-2-yl)cyclopropane-1-carboxamide] | 18.2 nM |
| Cc1cc2cnc(NC(=O)C3CC3C(F)F)cc2cc1C1CCN(C2(C)COCC2O)CC1 (stereo not drawn) [Ex-2.54] | 0.49 nM |
| CC(C)(O)C1CC1C(=O)Nc1cc2cc(C3(C#N)CC34CC4)ccc2cn1 (stereo not drawn) [Ex-2.31] | 0.224 nM |
| CC1CC1(C#N)c1ccc2cnc(NC(=O)C3CC3)cc2c1 (single isomer, unassigned) [Ex-18.5, (R or S)-N-(6-(1-cyano-2-methylcyclopropyl)isoquinolin-3-yl)cyclopropanecarboxamide] | 5.75 nM |
| CC1(N2CCC(c3cc4cc(NC(=O)C5CC56CCOCC6)ncc4cc3Cl)CC2)CCOCC1F (single isomer, unassigned) [Ex-12.1, N-(7-chloro-6-(1-((3R,4R or 3S,4S)-3-fluoro-4-methyltetrahydro-2H-pyran-4-yl)piperidin-4-yl)isoquinolin-3-yl)-6-oxaspiro[2.5]octane-1-carboxamide] | 41.7 nM |
| N#CC1(c2ccc3cnc(NC(=O)C4CC45CCOCC5)cc3c2)CC12CC2 (single isomer, unassigned) [Ex-18.12, (R or S)-N-(6-((R or S)-1-cyanospiro[2.2]pentan-1-yl)isoquinolin-3-yl)-6-oxaspiro[2.5]octane-1-carboxamide] | 1.62 nM |
